Measurements: patent US20100028892A1, “YEAST BASED EXPRESSION OF PROTEASES AND METHODS OF USE” (Burnham Institute for Medical Research, priority 2008, published 2010)

Assays:
Type in all cases: cell-based
[1] = target: T1, Caspase1 (Homo sapiens, UniProt P29466); test: yeast 384 well β-galactosidase reporter assay, Caspase1 expressed alone; settings: Caspase1 in yeast, 384 well β-galactosidase activity assay
T1 construct: each full-length Caspase construct was expressed (for Caspases-1, 2, 3, 4, 5, 6, 7, and 9) at high levels; FLAG (C); HA (N); expressed in transfected cells; host or cells: Saccharomyces cerevisiae (EGY48)
T1 sequence (P29466 1-404): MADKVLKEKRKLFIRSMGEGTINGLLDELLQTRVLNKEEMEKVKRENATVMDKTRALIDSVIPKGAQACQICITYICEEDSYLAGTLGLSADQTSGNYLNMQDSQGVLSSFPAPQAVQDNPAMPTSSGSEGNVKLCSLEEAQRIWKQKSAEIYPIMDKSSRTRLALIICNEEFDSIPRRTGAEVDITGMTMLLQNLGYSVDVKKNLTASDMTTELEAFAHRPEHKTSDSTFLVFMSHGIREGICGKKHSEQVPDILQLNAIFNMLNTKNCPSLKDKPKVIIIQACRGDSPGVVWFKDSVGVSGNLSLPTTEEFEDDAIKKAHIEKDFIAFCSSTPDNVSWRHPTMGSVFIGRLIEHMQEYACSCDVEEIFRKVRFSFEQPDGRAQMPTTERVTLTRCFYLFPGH
Excerpt: (§1) When converting the yeast-based protease reporter system to HTS assay, conditions from agar plates to liquid medium in microtiter wells must be revised. This revision comprises, utilizing the measured β-galactosidase produced by yeast carrying the Caspase-cleavable reporter proteins, and assaying the colorimetric product (OD620nm) derived from X-gal substrate in 384 well plates, as a measure of the lacZ reporter gene activity. We compared β-galactosidase activity produced in the presence or absence of the broad-spectrum caspase inhibitory compound, zVAD-fmk ([…]-Valinyl-Alaninyl-Aspartyl-fluoromethylketone). […] Note that it was determined that it is not advisible to employ glucose in yeast media because it represses the GAL1 promoter used in some plasmids. […]
(§2) Yeast expressing various Caspases alone (at high levels) or in combination with upstream activators (at low levels) and cleavable substrates containing appropriate tetrapeptides reorganized by these proteases were used in 384 well β-galactosidase activity assays to assess inhibition by zVAD-fmk. The compound was titrated into assays at various concentrations and percentage inhibition was determined.
(§3) Assays were performed in a total volume of […] in triplicate. […] Absorbance at 620 nm was measured 2-3 days after culture at 30° C.

[2] = target: T2, Caspase1 activated with Asc (Homo sapiens, UniProt P29466); test: yeast 384 well β-galactosidase reporter assay, Caspase1 activated with Asc; settings: Caspase1 activated with Asc in yeast, 384 well β-galactosidase activity assay
T2 construct: Caspase (all full-length zymogen proforms) expression plasmids; FLAG (C); expressed in transfected cells; host or cells: Saccharomyces cerevisiae (EGY191 or EGY48)
T2 sequence (P29466 120-297 limits assumed): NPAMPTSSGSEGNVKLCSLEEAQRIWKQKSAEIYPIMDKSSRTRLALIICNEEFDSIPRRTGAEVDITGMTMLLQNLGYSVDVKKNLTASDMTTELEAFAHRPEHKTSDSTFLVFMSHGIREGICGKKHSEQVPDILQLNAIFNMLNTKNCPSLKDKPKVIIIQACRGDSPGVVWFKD
T2 sequence (P29466 317-404 limits assumed): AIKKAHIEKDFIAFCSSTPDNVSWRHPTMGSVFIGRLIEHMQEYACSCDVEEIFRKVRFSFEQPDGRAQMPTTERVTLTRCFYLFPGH
Excerpt: as §1, §2, §3

[3] = target: T3, Caspase7 (Homo sapiens, UniProt P55210); test: yeast 384 well β-galactosidase reporter assay, Caspase7; settings: Caspase7 in yeast, 384 well β-galactosidase activity assay
T3 construct: each full-length Caspase construct was expressed (for Caspases-1, 2, 3, 4, 5, 6, 7, and 9) at high levels; expressed in transfected cells; host or cells: Saccharomyces cerevisiae (EGY48)
T3 sequence (P55210 1-303): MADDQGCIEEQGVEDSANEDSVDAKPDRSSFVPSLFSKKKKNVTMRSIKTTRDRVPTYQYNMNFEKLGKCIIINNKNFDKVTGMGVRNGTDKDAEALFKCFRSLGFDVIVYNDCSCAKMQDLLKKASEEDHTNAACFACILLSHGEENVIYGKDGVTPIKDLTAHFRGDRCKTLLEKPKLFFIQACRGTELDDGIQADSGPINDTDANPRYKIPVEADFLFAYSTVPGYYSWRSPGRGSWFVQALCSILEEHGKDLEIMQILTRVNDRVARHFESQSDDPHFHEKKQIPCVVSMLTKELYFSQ
Excerpt: as §1, §2, §3

[4] = target: T4, Caspase10 activated with FADD (Homo sapiens, UniProt Q92851); test: yeast 384 well β-galactosidase reporter assay, Caspase10 activated with FADD; settings: Caspase10 activated with FADD in yeast, 384 well β-galactosidase activity assay
T4 construct: a small amount of each full-length Caspase construct was expressed with a large amount of adaptor protein FADD; FLAG (C); expressed in transfected cells; host or cells: Saccharomyces cerevisiae EGY48
T4 sequence (Q92851 1-479 isoform Q92851-2): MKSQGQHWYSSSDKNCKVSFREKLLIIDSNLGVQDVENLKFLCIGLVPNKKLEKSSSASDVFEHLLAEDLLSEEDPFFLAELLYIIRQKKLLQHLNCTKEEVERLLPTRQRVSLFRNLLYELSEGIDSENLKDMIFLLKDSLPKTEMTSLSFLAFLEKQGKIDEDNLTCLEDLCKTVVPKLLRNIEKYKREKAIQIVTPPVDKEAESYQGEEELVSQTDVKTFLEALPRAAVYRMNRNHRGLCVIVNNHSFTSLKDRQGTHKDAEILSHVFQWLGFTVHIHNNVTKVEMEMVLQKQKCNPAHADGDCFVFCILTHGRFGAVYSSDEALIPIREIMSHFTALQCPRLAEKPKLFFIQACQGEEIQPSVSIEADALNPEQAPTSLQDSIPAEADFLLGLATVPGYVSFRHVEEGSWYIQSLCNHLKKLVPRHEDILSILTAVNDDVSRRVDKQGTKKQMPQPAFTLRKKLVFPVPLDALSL
Excerpt: as §1, §2, §3

benzoyl-Valinyl-Alaninyl-Aspartyl-fluoromethylketone [zVAD-fmk]
IC50 [1]: 3.07 µM | IC50 [2]: 1 µM | IC50 [3]: 4.11 µM | IC50 [4]: 9.52 µM
